Assay results taken from article PMC11003488 (Journal of Enzyme Inhibition and Medicinal Chemistry, 2023).
Where “and” joins values, the source holds several entries; their conditions need not be identical. Identical values can stand only once.

How the values were obtained:
HCT-116 (colon cancer) [1] = assay: Apoptosis AV/PI assay by flow cytometry; format: cell-based, human; details: HCT-116, 24 h, IC50 of compound
HCT-116 (colon cancer) [2] = assay: Cell cycle analysis by PI flow cytometry; format: cell-based, human; details: HCT-116, 24 h, IC50 of compound
Caspase-3 [3] = assay: Protein level by ELISA assay in HCT-116; format: cell-based, human; details: HCT-116, IC50 of compound, 24 h, vs 0.1% DMSO
Bax [4] = assay: Protein level by ELISA assay in HCT-116; format: cell-based, human; details: HCT-116, IC50 of compound, 24 h, vs 0.1% DMSO
Caspase-3 [5] = assay: Gene expression by RT-qPCR in HCT-116; details: HCT-116, 24 h, IC50 of compound; vs 0.1% DMSO; 2^-ΔΔct
Cyt-c = assay: Gene expression by RT-qPCR in HCT-116; details: HCT-116, 24 h, IC50 of compound; vs 0.1% DMSO; 2^-ΔΔct
Bax [6] = assay: Gene expression by RT-qPCR in HCT-116; details: HCT-116, 24 h
Bcl-2 = assay: Gene expression by RT-qPCR in HCT-116; details: HCT-116, 24 h, IC50 of compound; vs 0.1% DMSO; 2^-ΔΔct
TNF-α = assay: Gene expression by RT-qPCR in HCT-116; details: HCT-116, 24 h, IC50 of compound; vs 0.1% DMSO; 2^-ΔΔct
CCRF-CEM = details: NCI Data NSC: 800934 ref 41; cited from earlier work
HL-60(TB) = details: NCI Data NSC: 800934 ref 41; cited from earlier work
MOLT-4 = details: NCI Data NSC: 800934 ref 41; cited from earlier work
SR = details: NCI Data NSC: 800934 ref 41; cited from earlier work
A549/ATCC = details: NCI Data NSC: 800934 ref 41; cited from earlier work
EKVX = details: NCI Data NSC: 800934 ref 41; cited from earlier work
HOP-62 = details: NCI Data NSC: 800934 ref 41; cited from earlier work
NCI-H226 = details: NCI Data NSC: 800934 ref 41; cited from earlier work
NCI-H23 = details: NCI Data NSC: 800934 ref 41; cited from earlier work
NCI-H322M = details: NCI Data NSC: 800934 ref 41; cited from earlier work
NCI-H460 = details: NCI Data NSC: 800934 ref 41; cited from earlier work
NCI-H522 = details: NCI Data NSC: 800934 ref 41; cited from earlier work
COLO 205 = details: NCI Data NSC: 800934 ref 41; cited from earlier work
HCC-2998 = details: NCI Data NSC: 800934 ref 41; cited from earlier work
HCT-15 = details: NCI Data NSC: 800934 ref 41; cited from earlier work
HT29 = details: NCI Data NSC: 800934 ref 41; cited from earlier work
KM12 = details: NCI Data NSC: 800934 ref 41; cited from earlier work
SW-620 = details: NCI Data NSC: 800934 ref 41; cited from earlier work
SF-268 = details: NCI Data NSC: 800934 ref 41; cited from earlier work
SF-295 = details: NCI Data NSC: 800934 ref 41; cited from earlier work
SF-539 = details: NCI Data NSC: 800934 ref 41; cited from earlier work
SNB-19 = details: NCI Data NSC: 800934 ref 41; cited from earlier work
SNB-75 = details: NCI Data NSC: 800934 ref 41; cited from earlier work
U251 = details: NCI Data NSC: 800934 ref 41; cited from earlier work
LOX IMVI = details: NCI Data NSC: 800934 ref 41; cited from earlier work
MALME-3M = details: NCI Data NSC: 800934 ref 41; cited from earlier work
M14 = details: NCI Data NSC: 800934 ref 41; cited from earlier work
MDA-MB-435 = details: NCI Data NSC: 800934 ref 41; cited from earlier work
SK-MEL-2 = details: NCI Data NSC: 800934 ref 41; cited from earlier work
SK-MEL-28 = details: NCI Data NSC: 800934 ref 41; cited from earlier work
UACC-257 = details: NCI Data NSC: 800934 ref 41; cited from earlier work
UACC-62 = details: NCI Data NSC: 800934 ref 41; cited from earlier work
IGROV1 = details: NCI Data NSC: 800934 ref 41; cited from earlier work
OVCAR-3 = details: NCI Data NSC: 800934 ref 41; cited from earlier work
OVCAR-4 = details: NCI Data NSC: 800934 ref 41; cited from earlier work
OVCAR-5 = details: NCI Data NSC: 800934 ref 41; cited from earlier work
OVCAR-8 = details: NCI Data NSC: 800934 ref 41; cited from earlier work
NCI/ADR-RES = details: NCI Data NSC: 800934 ref 41; cited from earlier work
SK-OV-3 = details: NCI Data NSC: 800934 ref 41; cited from earlier work
786-0 = details: NCI Data NSC: 800934 ref 41; cited from earlier work
A498 = details: NCI Data NSC: 800934 ref 41; cited from earlier work
ACHN = details: NCI Data NSC: 800934 ref 41; cited from earlier work
CAKI-1 = details: NCI Data NSC: 800934 ref 41; cited from earlier work
RXF 393 = details: NCI Data NSC: 800934 ref 41; cited from earlier work
SN12C = details: NCI Data NSC: 800934 ref 41; cited from earlier work
TK-10 = details: NCI Data NSC: 800934 ref 41; cited from earlier work
UO-31 = details: NCI Data NSC: 800934 ref 41; cited from earlier work
PC-3 = details: NCI Data NSC: 800934 ref 41; cited from earlier work
DU-145 = details: NCI Data NSC: 800934 ref 41; cited from earlier work
MCF7 = details: NCI Data NSC: 800934 ref 41; cited from earlier work
HS 578 T = details: NCI Data NSC: 800934 ref 41; cited from earlier work
BT-549 = details: NCI Data NSC: 800934 ref 41; cited from earlier work
T-47D = details: NCI Data NSC: 800934 ref 41; cited from earlier work
[7] = system: NCI 60-cell line panel (full panel); details: read-out: Full panel MG-MID GI50, NCI Data NSC: 800934; cited from earlier work
Leukaemia cell lines = details: read-out: MG-MID GI50; leukaemia subpanel; NCI Data NSC: 800934; cited from earlier work
NSCLC cell lines = details: read-out: MG-MID GI50; NSCLC subpanel; NCI Data NSC: 800934; cited from earlier work
Colon cancer cell lines = details: read-out: MG-MID GI50; Colon Cancer subpanel; NCI Data NSC: 800934; cited from earlier work
CNS cancer cell lines = details: read-out: MG-MID GI50; CNS Cancer subpanel; NCI Data NSC: 800934; cited from earlier work
Melanoma cell lines = details: read-out: MG-MID GI50; Melanoma subpanel; NCI Data NSC: 800934; cited from earlier work
[8] = system: Ovarian cancer cell lines; details: read-out: MG-MID GI50; Ovarian Cancer subpanel; NCI Data NSC: 800934; cited from earlier work
Renal cancer cell lines = details: read-out: MG-MID GI50; Renal Cancer subpanel; NCI Data NSC: 800934; cited from earlier work
[9] = system: Prostate cancer cell lines; details: read-out: MG-MID GI50; Prostatic Cancer subpanel; NCI Data NSC: 800934; cited from earlier work
Breast cancer cell lines = details: read-out: MG-MID GI50; Breast Cancer subpanel; NCI Data NSC: 800934; cited from earlier work

COc1cccc2c1C(=O)c1c(O)c3c(c(O)c1C2=O)C[C@@](O)(C(=O)CO)C[C@@H]3O[C@H]1C[C@H](N)[C@H](O)[C@H](C)O1 [Doxorubicin, reference compound]
% Early apoptotic cells (LR) (HCT-116 (colon cancer) [1]): 0.00 ± 0.0%
% Late apoptotic cells (UL) (HCT-116 (colon cancer) [1]): 3.86 ± 0.66%
% Necrotic cells (UR) (HCT-116 (colon cancer) [1]): 96.12 ± 14.1%
% Viable cells (LL) (HCT-116 (colon cancer) [1]): 0.03 ± 0.001%
% G0-G1 (HCT-116 (colon cancer) [2]): 55.35 ± 6.3%
% G2M (HCT-116 (colon cancer) [2]): 15.05 ± 6.7%
% S (HCT-116 (colon cancer) [2]): 18.68 ± 2.2%
% SubG0-G1 (HCT-116 (colon cancer) [2]): 10.75 ± 2.3%
caspase-3 protein level (Caspase-3 [3]): 34.15 fold
Bax protein level (Bax [4]): 1.86 fold
Caspase-3 gene expression fold change (Caspase-3 [5]): 0.75 ± 0.09 fold
Cyt-c gene expression fold change (Cyt-c): 44.32 ± 4.3 fold
Bax gene expression fold change (Bax [6]; IC50 of compound, vs 0.1% DMSO, 2^-ΔΔct): 0.31 ± 0.05 fold
Bax/Bcl-2 ratio (Bax [6]; ratio of gene expression fold changes): 2
Bcl-2 gene expression fold change (Bcl-2): 0.15 ± 0.03 fold
TNF-α gene expression fold change (TNF-α): 2.33 fold and 2.33 ± 0.2 fold

CNC(=O)c1cc(Oc2ccc(NC(=O)Nc3ccc(Cl)c(C(F)(F)F)c3)cc2)ccn1 [Sorafenib]
GI50 (CCRF-CEM): 3.16 µM
GI50 (HL-60(TB)): 630 nM
GI50 (MOLT-4): 2510 nM
GI50 (SR): 1990 nM
GI50 (A549/ATCC): 3.16 µM
GI50 (EKVX): 3.16 µM
GI50 (HOP-62): 2510 nM
GI50 (NCI-H226): 1250 nM
GI50 (NCI-H23): 1990 nM
GI50 (NCI-H322M): 3.98 µM
GI50 (NCI-H460): 3.16 µM
GI50 (NCI-H522): 1990 nM
GI50 (COLO 205): 2510 nM
GI50 (HCC-2998): 3.16 µM
GI50 (HCT-15): 2510 nM
GI50 (HT29): 2510 nM
GI50 (KM12): 2510 nM
GI50 (SW-620): 3.98 µM
GI50 (SF-268): 3.98 µM
GI50 (SF-295): 2510 nM
GI50 (SF-539): 1990 nM
GI50 (SNB-19): 5.01 µM
GI50 (SNB-75): 1990 nM
GI50 (U251): 3.16 µM
GI50 (LOX IMVI): 2510 nM
GI50 (MALME-3M): 3.16 µM
GI50 (M14): 1990 nM
GI50 (MDA-MB-435): 1990 nM
GI50 (SK-MEL-2): 1250 nM
GI50 (SK-MEL-28): 2510 nM
GI50 (UACC-257): 1990 nM
GI50 (UACC-62): 2510 nM
GI50 (IGROV1): 3.16 µM
GI50 (OVCAR-3): 3.98 µM
GI50 (OVCAR-4): 3.16 µM
GI50 (OVCAR-5): 3.16 µM
GI50 (OVCAR-8): 3.16 µM
GI50 (NCI/ADR-RES): 3.16 µM
GI50 (SK-OV-3): 3.16 µM
GI50 (786-0): 3.98 µM
GI50 (A498): 3.16 µM
GI50 (ACHN): 3.16 µM
GI50 (CAKI-1): 3.16 µM
GI50 (RXF 393): 3.98 µM
GI50 (SN12C): 3.16 µM
GI50 (TK-10): 3.98 µM
GI50 (UO-31): 3.16 µM
GI50 (PC-3): 1990 nM
GI50 (DU-145): 5.01 µM
GI50 (MCF7): 2510 nM
GI50 (HS 578 T): 3.16 µM
GI50 (BT-549): 3.16 µM
GI50 (T-47D): 1990 nM
GI50 [7]: 2760 nM
GI50 (Leukaemia cell lines): 1910 nM
GI50 (NSCLC cell lines): 2530 nM
GI50 (Colon cancer cell lines): 2680 nM
GI50 (CNS cancer cell lines): 3.1 µM
GI50 (Melanoma cell lines): 2160 nM
GI50 [8]: 3.27 µM
GI50 (Renal cancer cell lines): 3.46 µM
GI50 [9]: 3.5 µM
GI50 (Breast cancer cell lines): 2760 nM
